Experiment [1] addresses T1, Mycoplasma hominus arginine deiminase (HOMADIPRO, ATCC 23114), recombinant, expressed in E. coli, SEQ ID NO: 3 (Metamycoplasma hominis, UniProt P41141).
T1 construct: tag not given
The experiment in a line: Kinetic characterization (Km, Vmax, affinity) of recombinant ADI with arginine, quantifying citrulline production. The format is biochemical. The settings on record: about; range given for the enzymes of the three Mycoplasma species; various concentrations of arginine. An excerpt: (§1) Cultures of Mycoplasma arginini (ATCC 23243), Mycoplasma hominus (ATCC 23114) and Mycoplasma arthritides (ATCC 23192) were obtained from the American Type Culture Collection, Rockville, Md.
(§2) Arginine deiminase was cloned from Mycoplasma arginini, Mycoplasma hominus and Mycoplasma arthritides and expressed in E. coli as previously described by S. Misawa et al, J. Biotechnology, 36:145-155 (1994), the disclosure of which is hereby incorporated herein by reference in its entirety. The top amino acid sequence, identified as ADIPROT, is from Mycoplasma arginini; the middle amino acid sequence, identified as ARTADIPRO, is from Mycoplasma arthritides; and the bottom amino acid sequence, identified as HOMADIPRO, is from Mycoplasma hominus. Each of the amino acid sequences are more than 96% conserved. […] The pH optima was determined using a citrate buffer (pH 5-6.5), a phosphate buffer (pH 6.5-7.5) and a borate buffer (pH 7.5-8.5). The Km and Vmax were determined by incubating the enzyme with various concentrations of arginine and quantifying citrulline production. The Km for the various enzymes was about 0.02 to 0.06 μM and the Vmax was about 15-20 μmol/min/mg, the values of which are within standard error of each other.
(§3) The proteins from each of the above three species of Mycoplasma have approximately 95% homology and are readily purified by column chromatography. […]

The target of experiment [2] is T2, Mycoplasma arginini arginine deiminase (ADIPROT, ATCC 23243), recombinant, expressed in E. coli, SEQ ID NO: 1 (Mycoplasmopsis arginini, UniProt P23793).
T2 construct: made in house; host or cells: E. coli
The experiment is described as above. It is filed as biochemical. The settings on record: about; range given for the enzymes of the three Mycoplasma species; various concentrations of arginine.
Source text: as §1, §2, §3

The results in this text go back to patent US7323167B2, “Method of treatment with modified arginine deiminase” (Polaris Group, priority 1997, dated 2008).

T2 sequence (P23793 whole entry E126K): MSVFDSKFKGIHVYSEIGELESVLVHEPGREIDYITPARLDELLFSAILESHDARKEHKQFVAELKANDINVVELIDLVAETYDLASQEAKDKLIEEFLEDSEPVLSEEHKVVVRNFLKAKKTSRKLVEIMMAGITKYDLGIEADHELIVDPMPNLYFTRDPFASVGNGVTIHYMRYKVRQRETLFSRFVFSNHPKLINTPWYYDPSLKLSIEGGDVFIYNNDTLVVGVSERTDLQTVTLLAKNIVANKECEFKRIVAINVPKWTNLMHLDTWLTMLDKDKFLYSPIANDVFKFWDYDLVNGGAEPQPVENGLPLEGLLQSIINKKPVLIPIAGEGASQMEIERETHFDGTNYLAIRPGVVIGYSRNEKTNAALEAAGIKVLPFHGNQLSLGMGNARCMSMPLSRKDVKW
T1 sequence (P41141 whole entry): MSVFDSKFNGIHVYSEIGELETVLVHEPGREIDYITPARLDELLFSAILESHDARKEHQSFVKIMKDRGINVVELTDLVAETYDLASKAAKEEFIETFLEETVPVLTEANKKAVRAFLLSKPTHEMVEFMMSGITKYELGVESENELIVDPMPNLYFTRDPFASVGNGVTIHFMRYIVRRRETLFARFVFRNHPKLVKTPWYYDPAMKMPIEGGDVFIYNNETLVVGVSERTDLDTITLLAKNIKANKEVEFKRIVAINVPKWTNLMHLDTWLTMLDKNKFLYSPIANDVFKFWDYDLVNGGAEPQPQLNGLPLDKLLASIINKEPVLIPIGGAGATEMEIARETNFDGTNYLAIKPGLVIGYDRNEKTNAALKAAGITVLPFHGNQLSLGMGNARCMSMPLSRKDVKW

What is called Vmax is the rate approached at saturating substrate. As for `N=C(N)NCCC[C@H](N)C(=O)O` [arginine, L-arginine], the Vmax in experiment [1] and in experiment [2] was 15 to 20 µmol/min/mg in each case.
